Results taken from patent US20220281848A1, “PYRAZOLE-SUBSTITUTED PYRROLIDINONES AS HERBICIDES” (FMC Corporation, priority 2019, published 2022).

System: plants
Test: Test D pre-emergence, other plants of Tables D1 and D3
Format: in vivo
Details: preemergent, 20 DAA
How it was run: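 Seeds treated with herbicide safener; sown in soil; glasshouse, 16 h light, 65% humidity. Sprayed day 1 (pre) or ~day 12 (post). Spray in 0.2% v/v adjuvant. Scored 0–100 damage: 20 DAA pre, 15 d post.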

CCn1nc([C@H]2CN(C)C(=O)[C@@H]2C(=O)Nc2cccc(F)c2F)c2c(F)cccc21 [Compound 7]
damage to plant (100=total damage to plant; 0=no damage to plant), ABUTH (rate 15): 0 | damage to plant (100=total damage to plant; 0=no damage to plant), ABUTH (rate 30): 0 | damage to plant (100=total damage to plant; 0=no damage to plant), ABUTH (rate 60): 0 | damage to plant (100=total damage to plant; 0=no damage to plant), ABUTH (rate 130): 0 | damage to plant (100=total damage to plant; 0=no damage to plant), ABUTH (rate 250): 0 | damage to plant (100=total damage to plant; 0=no damage to plant), ABUTH (rate 500): 10 | damage to plant (100=total damage to plant; 0=no damage to plant), AMARE (rate 15): 0 | damage to plant (100=total damage to plant; 0=no damage to plant), AMARE (rate 30): 0 | damage to plant (100=total damage to plant; 0=no damage to plant), AMARE (rate 60): 0 | damage to plant (100=total damage to plant; 0=no damage to plant), AMARE (rate 130): 0 | damage to plant (100=total damage to plant; 0=no damage to plant), AMARE (rate 250): 0 | damage to plant (100=total damage to plant; 0=no damage to plant), AMARE (rate 500): 0 | damage to plant (100=total damage to plant; 0=no damage to plant), BIDPI (rate 15): 0 | damage to plant (100=total damage to plant; 0=no damage to plant), BIDPI (rate 30): 0 | damage to plant (100=total damage to plant; 0=no damage to plant), BIDPI (rate 60): 0 | damage to plant (100=total damage to plant; 0=no damage to plant), BIDPI (rate 130): 0 | damage to plant (100=total damage to plant; 0=no damage to plant), BIDPI (rate 250): 0 | damage to plant (100=total damage to plant; 0=no damage to plant), BIDPI (rate 500): 0 | damage to plant (100=total damage to plant; 0=no damage to plant), BRAPL (rate 15): 0 | damage to plant (100=total damage to plant; 0=no damage to plant), BRAPL (rate 30): 60 | damage to plant (100=total damage to plant; 0=no damage to plant), BRAPL (rate 60): 80 | damage to plant (100=total damage to plant; 0=no damage to plant), BRAPL (rate 130): 80 | damage to plant (100=total damage to plant; 0=no damage to plant), BRAPL (rate 250): 90 | damage to plant (100=total damage to plant; 0=no damage to plant), BRAPL (rate 500): 100 | damage to plant (100=total damage to plant; 0=no damage to plant), CYPES (rate 15): 0 | damage to plant (100=total damage to plant; 0=no damage to plant), CYPES (rate 30): 0 | damage to plant (100=total damage to plant; 0=no damage to plant), CYPES (rate 60): 0 | damage to plant (100=total damage to plant; 0=no damage to plant), CYPES (rate 130): 0 | damage to plant (100=total damage to plant; 0=no damage to plant), CYPES (rate 250): 0 | damage to plant (100=total damage to plant; 0=no damage to plant), CYPES (rate 500): 20 | damage to plant (100=total damage to plant; 0=no damage to plant), DIGSA (rate 15): 0 | damage to plant (100=total damage to plant; 0=no damage to plant), DIGSA (rate 30): 80 | damage to plant (100=total damage to plant; 0=no damage to plant), DIGSA (rate 60): 90 | damage to plant (100=total damage to plant; 0=no damage to plant), DIGSA (rate 130): 100 | damage to plant (100=total damage to plant; 0=no damage to plant), DIGSA (rate 250): 100 | damage to plant (100=total damage to plant; 0=no damage to plant), DIGSA (rate 500): 100 | damage to plant (100=total damage to plant; 0=no damage to plant), ECHCG (rate 15): 0 | damage to plant (100=total damage to plant; 0=no damage to plant), ECHCG (rate 30): 90 | damage to plant (100=total damage to plant; 0=no damage to plant), ECHCG (rate 60): 90 | damage to plant (100=total damage to plant; 0=no damage to plant), ECHCG (rate 130): 100 | damage to plant (100=total damage to plant; 0=no damage to plant), ECHCG (rate 250): 100 | damage to plant (100=total damage to plant; 0=no damage to plant), ECHCG (rate 500): 100 | damage to plant (100=total damage to plant; 0=no damage to plant), ELEIN (rate 15): 0 | damage to plant (100=total damage to plant; 0=no damage to plant), ELEIN (rate 30): 0 | damage to plant (100=total damage to plant; 0=no damage to plant), ELEIN (rate 60): 10 | damage to plant (100=total damage to plant; 0=no damage to plant), ELEIN (rate 130): 60 | damage to plant (100=total damage to plant; 0=no damage to plant), ELEIN (rate 250): 50 | damage to plant (100=total damage to plant; 0=no damage to plant), ELEIN (rate 500): 70 | damage to plant (100=total damage to plant; 0=no damage to plant), EPHHL (rate 15): 0 | damage to plant (100=total damage to plant; 0=no damage to plant), EPHHL (rate 30): 0 | damage to plant (100=total damage to plant; 0=no damage to plant), EPHHL (rate 60): 0 | damage to plant (100=total damage to plant; 0=no damage to plant), EPHHL (rate 250): 10 | damage to plant (100=total damage to plant; 0=no damage to plant), EPHHL (rate 500): 40 | damage to plant (100=total damage to plant; 0=no damage to plant), GLXMA (rate 15): 0 | damage to plant (100=total damage to plant; 0=no damage to plant), GLXMA (rate 30): 0 | damage to plant (100=total damage to plant; 0=no damage to plant), GLXMA (rate 60): 0 | damage to plant (100=total damage to plant; 0=no damage to plant), GLXMA (rate 130): 0 | damage to plant (100=total damage to plant; 0=no damage to plant), GLXMA (rate 250): 0 | damage to plant (100=total damage to plant; 0=no damage to plant), GLXMA (rate 500): 0 | damage to plant (100=total damage to plant; 0=no damage to plant), IPOHE (rate 15): 0 | damage to plant (100=total damage to plant; 0=no damage to plant), IPOHE (rate 30): 0 | damage to plant (100=total damage to plant; 0=no damage to plant), IPOHE (rate 60): 0 | damage to plant (100=total damage to plant; 0=no damage to plant), IPOHE (rate 130): 0 | damage to plant (100=total damage to plant; 0=no damage to plant), IPOHE (rate 250): 0 | damage to plant (100=total damage to plant; 0=no damage to plant), IPOHE (rate 500): 0 | damage to plant (100=total damage to plant; 0=no damage to plant), ORYSA (rate 15): 0 | damage to plant (100=total damage to plant; 0=no damage to plant), ORYSA (rate 30): 0 | damage to plant (100=total damage to plant; 0=no damage to plant), ORYSA (rate 60): 0 | damage to plant (100=total damage to plant; 0=no damage to plant), ORYSA (rate 130): 0 | damage to plant (100=total damage to plant; 0=no damage to plant), ORYSA (rate 250): 0 | damage to plant (100=total damage to plant; 0=no damage to plant), ORYSA (rate 500): 0 | damage to plant (100=total damage to plant; 0=no damage to plant), PANMI (rate 15): 0 | damage to plant (100=total damage to plant; 0=no damage to plant), PANMI (rate 30): 0 | damage to plant (100=total damage to plant; 0=no damage to plant), PANMI (rate 60): 0 | damage to plant (100=total damage to plant; 0=no damage to plant), PANMI (rate 130): 0 | damage to plant (100=total damage to plant; 0=no damage to plant), PANMI (rate 250): 0 | damage to plant (100=total damage to plant; 0=no damage to plant), PANMI (rate 500): 20 | damage to plant (100=total damage to plant; 0=no damage to plant), SETFA (rate 15): 0 | damage to plant (100=total damage to plant; 0=no damage to plant), SETFA (rate 30): 80 | damage to plant (100=total damage to plant; 0=no damage to plant), SETFA (rate 60): 80 | damage to plant (100=total damage to plant; 0=no damage to plant), SETFA (rate 130): 90 | damage to plant (100=total damage to plant; 0=no damage to plant), SETFA (rate 250): 90 | damage to plant (100=total damage to plant; 0=no damage to plant), SETFA (rate 500): 100 | damage to plant (100=total damage to plant; 0=no damage to plant), SIDSP (rate 15): 0 | damage to plant (100=total damage to plant; 0=no damage to plant), SIDSP (rate 30): 0 | damage to plant (100=total damage to plant; 0=no damage to plant), SIDSP (rate 60): 0 | damage to plant (100=total damage to plant; 0=no damage to plant), SIDSP (rate 130): 0 | damage to plant (100=total damage to plant; 0=no damage to plant), SIDSP (rate 250): 0 | damage to plant (100=total damage to plant; 0=no damage to plant), SIDSP (rate 500): 10 | damage to plant (100=total damage to plant; 0=no damage to plant), SORVU (rate 15): 0 | damage to plant (100=total damage to plant; 0=no damage to plant), SORVU (rate 30): 0 | damage to plant (100=total damage to plant; 0=no damage to plant), SORVU (rate 60): 0
